# Source: US5906922A, “Delivery of nucleic acids” (Commonwealth Scientific and Industrial Research Organisation, priority 1994, dated 1999)
# Where a SMILES comes first, the peptide text is derived from it. The star is where a group is joined. NHC(CH2OLauroyl)3 = CCCCCCCCCCCC(=O)OCC(COC(=O)CCCCCCCCCCC)(COC(=O)CCCCCCCCCCC)N*
# Experiments:
# cells = experiment: β-gal reporter transfection, "y" linker non-standard amino acids; format: cell-based; conditions: K3 "y" TL3 compounds
# Experimental: Peptide/fatty acyl conjugates were synthesized using the non-standard amino acids amino butyric (C3), amino caproic (C5) and amino caprylic (C7) acids as the linker groups, a tri-lysine nucleic acid binding domain and laurate for the three fatty acyl groups. In these new conjugates the DNA binding and tris/fatty acyl moieties were separated by an extra 3, 5 and 7 carbon bond lengths respectively when compared with the prototype molecule. These compounds were then tested in the standard manner described above to determine their relative capacity to transfect cells.
# K3 "y" TL3 compounds, where y=C3, C5, C7, A, L, G were compared for transfection efficiency to each other and the commercial agent Lipofectamine using the standard β-gal reporter gene system described above.
# Cos 1 cells [1] = format: cell-based, African Green Monkey
# Source text: Relative levels of cytotoxicity caused by the different agents were compared during the experiment using the dye "Alamar Blue" (Alamar, Sacramento Calif.).
# (§1) For experiment "c", a plasmid pPGKlaczNLS encoding β-galactosidase under the control of the mouse PGK promoter (kind gift from G.Hannan) or pSVGAL which utilises the SV40 early promoter (Sleigh, M. J. and Lockett, T. J. (1985). EMBO J. 4:3831-3837),was transfected. This experiment and assay were modified from Feigner et al J. Biol Chem. 269(4) 2550-2561 1994. This protocol allows the simultaneous assessment of 72 different combinations and concentrations of DNA and test agent in a microtitre tray. […] Cytotoxicity was assessed using alamar blue, and a sample graph is shown for experiment a.
# (§2) The ratio of [lipid]/[DNA] at which that maximum was achieved is shown. Experiments shown were carried out in Cos 1 cells, as described above. MTS OD is a measure of relative viabilility of the cells exposed to the different agents, a higher value indicates greater cell viability. * These points were taken from a separate experiment and some slight variation between absolute numbers should be expected between experiments.
# (§3) The ratio of [lipid]/[DNA] at which that maximum was achieved is shown in brackets for the two different cell types in the following order; (Cos 1) (CHO). Experiments shown were carried out in Cos 1 cells, as described above. Viability was measured with the dye alamar blue . # Denotes compounds tested in a separate experiment. * Viability in this experiment was determined with MTS. OD is a measure of relative viability of the cells exposed to the different agents, and as with alamar blue, a higher value indicates greater cell viability.
# Cos 1 cells [2] = experiment: β-gal microtitre plate transfection assay, Cos 1; format: cell-based, African Green Monkey; conditions: for relative transfection level (A linker compound as reference): "y" linker experiment c, Cos 1, trilysine trilaurate
# Source text: as §1
# Compounds were tested for their ability to transfect either the CAT or β-gal gene carried on plasmids, and assayed as described above.
# as §2
# Each of these compounds was tested for transfection ability and cytotoxicity on standard cell lines using standard conditions as described above.
# as §3
# Cos 1 cells [3] = format: cell-based, African Green Monkey; remark: listed apart in the source
# Experimental: Relative levels of cytotoxicity were also assayed in subsequent experiments using the dye MTS, marketed as Cell titre 96 Aqueous (Promega).
# as §2, §3
# Cos 1 cells [4] = experiment: Cellular uptake and distribution of fluorescein conjugates (confocal microscopy); format: cell-based, African Green Monkey; conditions: for cell staining after treatment: cells fixed fifteen minutes after treatment; for persistence of staining: conjugate washed off after 2 hours, cells grown 24 hours; for distribution in live, unfixed cells: 40× objective
# Experimental: In order to assess the ability to deliver compounds into cells, preliminary experiments were conducted with fluorescein alanine ethanolamine palmitate (FLAEP) and fluorescein alanine tris tripalmitate (FLATP3).
# After the incubation period as specified in the experiment, up to 24 hours exposure, the cells were washed and fixed in formaldehyde for 20 minutes. Cells were then observed under laser excitation in a Bio Rad MRC 500 confocal microscope.
# Cos 1 cells [5] = experiment: Transfection of pSVLCAT, CAT assay, Cos 1; format: cell-based, African Green Monkey
# Experimental: To test the transfection properties of the lead compound K3ATP3 (VerafectinA3), whole uncut plasmid carrying the gene encoding CAT (chloramphenicol acetyl transferase) under the control of the SV40 late promoter, pSVLCAT (Cameron, F. H. and Jennings, P. A. (1989) PNAS 86, 9139-9143) was mixed with the test agent and put on Cos 1 cells under various conditions. After 48 hours of culture the level of secreted CAT was assayed from the culture medium.
# Solution I: 1 μg Plasmid DNA in 500 μl Dulbeccos Modified Eagles Medium (DME)
# Solution II: 0-20 μl VerafectinA3 (2.5 mg/ml 25% DMSO) in 500 μl DME, Vortex
# Combine solution I and II, vortex briefly and incubate at room temperature for 10 min.
# Add mix to washed cells in 60 mm tissue culture dishes (seeded 0.5×10^6 /dish previous day) for 6 hrs at 37° C., 5% C02. Add 2 ml DME+10% FCS for remainder of 48 hrs. Assay CAT levels in tissue culture medium (Sleigh, M. J. (1986) Anal. Biochem. 156.251-256).
# a--Compare VerafectinA3 dissolved in DMSO or ethanol.
# b--Compare VerafectinA3 on cells 6 hrs to overnight. VerafectinA3 at 10 mg/ml in 100% solvent was diluted to 2.5 mg/ml with water.
# Transfection was carried out as for experiment 1. VerafectinA3 was left in contact with the cells for varying times.
# Protocol was the same for the Verafectins as described above. Lipofectamine protocol was according to manufacturers instructions. Cos 1 cells were seeded at 5×10^5 /60 mm dish and adhered overnight in DME with 10% FCS.
# Solution A: 0.5 μg pSVLCAT/60 mm dish.
# Solution B: Lipofectamine 10 and 15 μl 2 mg/ml (mixed formulation 3:1 with DOPE).
# OR; VerafectinA3 and VerafectinG2 20 μl 2 mM (2.8 and 2.3 mg/ml respectively) stock.
# OR; VerafectinG2 was also tested with an equimolar amount of DOPE. VerafectinG2 and DOPE were mixed in DDME and vortexed for 30 seconds before use. Solutions A and B were combined before overlaying on washed cells.
# The serum free incubation period in the presence of test agents and DNA was 6 hrs, then 1 ml DME+10% FCS was added. At 24 hours medium was changed to 2 ml fresh DME+10% FCS until harvest at 48 hrs.
# Cell lines Cos 1 or CHO were transfected with 0.5 μg of pSVLCAT or 2 μg of pPGKlacZ plasmid using a range of concentrations of each transfection compound. The optimal concentration of compound, that is the concentration giving the highest level of CAT at 48 hours or the greatest percentage of lac z (β-galactosidase) staining cells at 24 hours was used to collate data for Table 1. As all compounds were not tested in a single experiment, absolute figures indicating transfection were not used. Rather, symbols are used to indicate the transfection efficiency relative to Lipofectamine (BRL), which was included as a control in all experiments. Table 1 thus indicates the relative efficiencies of a number of compounds in mediating the transfection of at least one cell type.
# All test lipopeptide reagents were originally dissolved at 10 mM in 75% DMSO, and subsequently diluted with water to make a 2 mM stock stored at 4° C. Volumes of 2 mM stock lipopeptide ranging from 2 μl to 15 μl were diluted in 500 μl of DDME. 1 μg of plasmid pSVLCAT was separately diluted in 500 μl of DDME. Solutions were combined for 10-20 min at room temperature before adding to 500 μl of DDME in 60 mm dishes of subconfluent CHO cells (2×10^5 day-1) or Cos 1 cells (5×10^5 day-1); washed free of serum with DDME.
# Cells were incubated for 6 hrs under standard conditions of 37° C. and 5% CO2 for 6 hours. 1.5 ml of DME/Hams+10% FCS (CHO) or DME+10% FCS (Cos 1) was added to the cells for overnight incubation. Fresh DME/Hams+10% FCS or DME+10% FCS was used to replace the medium for a further 24 hours prior to harvest. Cell lysates were prepared and assayed for CAT activity as described above. For Cos 1 cells, culture supernatants were assayed for CAT activity.
# For transfection of pSVLCAT and subsequent assay of CAT enzyme, experiments "a" and "b" were carried out as described above.
compound,measurement,setting,value
CCCCCCCCCCCC(=O)OCC(COC(=O)CCCCCCCCCCC)(COC(=O)CCCCCCCCCCC)NC(=O)CCCCCNC(=O)[C@H](CCCCN)NC(=O)[C@H](CCCCN)NC(=O)[C@@H](N)CCCCN [K3C5TL3],transfection efficiency compared to Lipofectamine,cells,more efficient at transfection than Lipofectamine
same,transfection efficiency compared to standard single amino acid linker,cells,dramatically more efficient than compounds using the standard single amino acid linker
CCCCCCCCCCCC(=O)OCC(COC(=O)CCCCCCCCCCC)(COC(=O)CCCCCCCCCCC)NC(=O)CCCNC(=O)[C@H](CCCCN)NC(=O)[C@H](CCCCN)NC(=O)[C@@H](N)CCCCN [K3C3TL3],transfection efficiency compared to Lipofectamine,cells,more efficient at transfection than Lipofectamine
same,transfection efficiency compared to standard single amino acid linker,cells,dramatically more efficient than compounds using the standard single amino acid linker
CCCCCCCCCCCCCCCC(=O)OCC(CO)(COC(=O)CCCCCCCCCCCCCCC)NC(=O)[C@H](Cc1ccccc1)NC(=O)[C@H](CCCCN)NC(=O)[C@@H](N)CCCCN [K2FTP2],"toxicity, linkers K, F and L compared",Cos 1 cells [1],somewhat higher than for the K compound
CCCCCCCCCCCCCCCC(=O)OCC(COC(=O)CCCCCCCCCCCCCCC)(COC(=O)CCCCCCCCCCCCCCC)NC(=O)[C@H](CCCCN)NC(=O)[C@H](CCCCN)NC(=O)[C@@H](N)CCCCN [K2KTP3],"cytotoxicity, dipalmitate versus tripalmitate",Cos 1 cells [1],increase in cytotoxicity
CCCCCCCCCCCCCC(=O)OCC(CO)(COC(=O)CCCCCCCCCCCCC)NC(=O)[C@H](C)NC(=O)[C@H](CCCCN)NC(=O)[C@H](CCCCN)NC(=O)[C@@H](N)CCCCN [K3ATM2],ratio [lipid]/[DNA] at which maximum was achieved,"Cos 1 cells [2]; Table 2, Cos 1",0.35
same,units β-gal,"Cos 1 cells [2]; Table 2, Cos 1, highest reading of 72 conditions",3.46 × 10^-5 units
same,ratio [lipid]/[DNA] at which maximum was achieved,"Cos 1 cells [2]; Table 3, Cos 1",.35
same,β-gal (Cos 1),"Cos 1 cells [2]; Table 3, Cos 1, highest reading of 72 conditions",3.46 × 10^-5
same,MTS OD490-655,Cos 1 cells [3],1.56
same,Viability (Cos 1),Cos 1 cells [3],1.56
CCCCCCCCCCCC(=O)OCC(COC(=O)CCCCCCCCCCC)(COC(=O)CCCCCCCCCCC)NC(=O)CNC(=O)[C@H](CCCCN)NC(=O)[C@H](CCCCN)NC(=O)[C@@H](N)CCCCN [K3GTL3] (H-KKKG-{NHC(CH2OLauroyl)3}),relative transfection level (A linker compound as reference),Cos 1 cells [2],12%
same,transfection efficiency compared to Lipofectamine,cells,All of the compounds except K3GTL3 were found to be more efficient at transfection than Lipofectamine
fluorescein alanine ethanolamine palmitate [FLAEP],cell staining after treatment,Cos 1 cells [4]; 10 μM,intense cytoplasmic staining
same,persistence of staining,Cos 1 cells [4],This same persistence of staining was not observed
same,"distribution in live, unfixed cells",Cos 1 cells [4],"appeared to enter the cell readily, but was concentrated particularly in the nucleus"
CCCCCCCCCCCCCCCC(=O)OCC(CO)(COC(=O)CCCCCCCCCCCCCCC)NC(=O)[C@H](CC(C)C)NC(=O)[C@H](CCCCN)NC(=O)[C@@H](N)CCCCN [K2LTP2],"transfection, linkers K, F and L compared","Cos 1 cells [5]; ""y"" linker experiment a, Cos 1, dilysine dipalmitate","marginally superior results to F, but was substantially more effective than the K compound"
same,"transfection, linkers A and L compared","Cos 1 cells [5]; ""y"" linker experiment b, Cos 1",very similar activities
same,"toxicity, linkers K, F and L compared",Cos 1 cells [1],somewhat higher than for the K compound
fluorescein alanine Tris tripalmitate [FLATP3],cell staining after treatment,Cos 1 cells [4]; 10 μM,intense cytoplasmic staining
same,localisation of conjugate,"Cos 1 cells [4]; 10 μM, fixed cells",appeared to associate preferentially with the cellular and nuclear membranes
same,persistence of staining,Cos 1 cells [4],a pattern that persisted in cells allowed to grow for 24 hours
same,"distribution in live, unfixed cells",Cos 1 cells [4],exhibited a similar pattern whether the cells were live or fixed
"O=C1OC2(c3ccc(O)cc3Oc3cc(O)ccc32)c2ccccc21 [fluorescein, reference compound]",cell staining after treatment,Cos 1 cells [4]; 10 μM,only a very weak generalised fluorescence over the whole cell
CCCCCCCCCCCC(=O)OCC(COC(=O)CCCCCCCCCCC)(COC(=O)CCCCCCCCCCC)NC(=O)[C@H](CC(C)C)NC(=O)[C@H](CCCCN)NC(=O)[C@H](CCCCN)NC(=O)[C@@H](N)CCCCN [K3LTL3] (H-KKKL-{NHC(CH2OLauroyl)3}),relative transfection level (A linker compound as reference),Cos 1 cells [2],57%
same,transfection efficiency compared to Lipofectamine,cells,more efficient at transfection than Lipofectamine
